According to patent US11566039B2, “Lincosamide antibiotics and uses thereof” (President and Fellows of Harvard College, priority 2017, dated 2023):
Values after ≈ are worked out from the molar mass of the structure shown. Like-named read-outs stand apart in the source and are kept apart here.

Assays:
Type in all cases: cell-based
[1] = tested on: S. pyogenes ATCC 19615; test: MIC against S. pyogenes ATCC 19615
[2] = tested on: S. pneumoniae ATCC 49619; test: MIC against S. pneumoniae ATCC 49619
[3] = tested on: S. aureus ATCC 29213; test: MIC against S. aureus ATCC 29213
[4] = tested on: E. coli ATCC 25922; test: MIC against E. coli ATCC 25922
[5] = tested on: E. faecalis ATCC 29212; test: MIC against E. faecalis ATCC 29212
[6] = tested on: E. coli MP-9 ΔTolC; test: MIC against E. coli MP-9 ΔTolC
[7] = tested on: S. aureus BAA 977 iErmA; test: MIC against S. aureus BAA 977 iErmA; conditions: Staphylococcus aureus, BAA977
[8] = tested on: K. pneumoniae ATCC 10031; test: MIC against K. pneumoniae ATCC 10031
[9] = tested on: H. influenzae ATCC 49247; test: MIC against H. influenzae ATCC 49247
[10] = tested on: E. coli MP-74 LptD mutant; test: MIC against E. coli MP-74 LptD mutant
[11] = tested on: S. aureus MP-549 msr(a) USA 300; test: MIC against S. aureus MP-549 msr(a) USA 300
[12] = Streptococcus pyogenes, ATCC19615, S. pyogenes ATCC 19615, read-out: MIC
[13] = Streptococcus pneumoniae, ATCC49619, S. pneumoniae ATCC 49619, read-out: MIC
[14] = Staphylococcus aureus, ATCC29213, S. aureus ATCC 29213, read-out: MIC
[15] = Escherichia coli, ATCC25922, read-out: MIC
[16] = Enterococcus faecalis, ATCC29212, E. faecalis ATCC 29212, read-out: MIC
[17] = Klebsiella pneumoniae, ATCC10031, read-out: MIC
[18] = Haemophilus influenzae, ATCC49247, H. influenzae ATCC 49247, read-out: MIC
[19] = Staphylococcus aureus, USA300, S. aureus MP-549 msr(a) USA 300
[20] = S. aureus MP-549 msr(a) USA 300

Compound	MIC [1, 12] [µg/mL]	MIC [2, 13] [µg/mL]	MIC [3, 14] [µg/mL]	MIC [4, 15] [µg/mL]	MIC [5, 16] [µg/mL]	MIC ([6]; Escherichia coli) [µg/mL]	MIC [8, 17] [µg/mL]	MIC [9, 18] [µg/mL]	MIC ([10]; Escherichia coli) [µg/mL]	further results
CCC[C@@H]1C[C@@H](C(=O)N[C@H](CNc2ccc(-c3cncnc3)cc2)[C@H]2OC(SC)[C@H](O)C(O)C2O)N(C)C1 (stereo partly shown) [FSA-214080]	> 64	> 64	> 64	> 64	> 64					
CCC[C@@H]1C[C@@H](C(=O)N[C@H]([C@H](C)N=[N+]=[N-])[C@H]2OC(SC)[C@H](O)C(O)C2O)N(C)C1 (stereo partly drawn) [FSA-215038, 7-(S)-deoxyazidolincomycin]	0.125 (≈ 0.29 µM)	0.25 (≈ 0.579 µM)	0.25 (≈ 0.579 µM)	> 64	32 (≈ 74.1 µM)	> 64	> 64			MIC [7]: 0.5 µg/mL (≈ 1.16 µM)
CCC[C@@H]1C[C@@H](C(=O)N2CCC[C@@H]2[C@H]2OC(SC)[C@H](O)C(O)C2O)N(C)C1 (stereo partly shown) [FSA-216092]	> 64	> 64	> 64	> 64	> 64	> 64	> 64	> 64	> 64	MIC [11, 19]: > 64 µg/mL
CCC[C@@H]1C[C@@H](C(=O)N[C@H]([C@H](C)NC(=O)CCN)[C@H]2OC(SC)[C@H](O)C(O)C2O)N(C)C1 (stereo partly shown) [FSA-215054]	64 (≈ 134 µM)	> 64	> 64	> 64	> 64	> 64	> 64			MIC [7]: > 64 µg/mL
CCC[C@@H]1C[C@@H](C(=O)N[C@H](CNCC(F)(F)F)[C@H]2OC(SC)[C@H](O)C(O)C2O)N(C)C1 (stereo partly shown) [FSA-214099]	32 (≈ 67.6 µM)	16 (≈ 33.8 µM)	64 (≈ 135 µM)	> 64	> 64					
CCC[C@@H]1C[C@@H](C(=O)N[C@@H]([C@H]2OC(SC)[C@H](O)C(O)C2O)C(C)(C)C(C)N=[N+]=[N-])N(C)C1 (single isomer, unassigned) [FSA-217021b]										MIC [6]: 32 µg/mL (≈ 67.6 µM); MIC ([1]; S. pyogenes ATCC 19615): 0.12 µg/mL (≈ 0.253 µM); MIC ([2]; S. pneumoniae ATCC 49619): 0.12 µg/mL (≈ 0.253 µM); MIC ([3]; S. aureus ATCC 29213): 0.25 µg/mL (≈ 0.528 µM); MIC [4]: >64 µg/mL; MIC ([9]; H. influenzae ATCC 49247): 32 µg/mL (≈ 67.6 µM); MIC [8]: >64 µg/mL; MIC ([5]; E. faecalis ATCC 29212): 64 µg/mL (≈ 135 µM); MIC [10]: 8 µg/mL (≈ 16.9 µM); MIC [11, 20]: 0.25 µg/mL (≈ 0.528 µM)
CCC[C@@H]1C[C@@H](C(=O)N[C@H](CN(C)c2ccc(-c3cccnc3)cc2)[C@H]2OC(SC)[C@H](O)C(O)C2O)N(C)C1 (stereo partly shown) [FSA-215009]	32 (≈ 57.3 µM)	64 (≈ 115 µM)	64 (≈ 115 µM)	> 64	> 64					
CCC[C@@H]1C[C@@H](C(=O)N[C@H](CNC2CC2)[C@H]2OC(SC)[C@H](O)[C@H](O)C2O)N(C)C1 (stereo partly shown) [FSA-214082b]	> 64	> 64	> 64	> 64	> 64					
C#C[C@@H](NC(=O)[C@@H]1C[C@@H](CCC)CN1C)[C@H]1OC(SC)[C@H](O)C(O)C1O (stereo partly shown) [FSA-217031]	8 (≈ 20.7 µM)	4 (≈ 10.3 µM)	64 (≈ 166 µM)	> 64	64 (≈ 166 µM)	> 64	> 64	> 64	> 64	MIC [11, 19]: 32 µg/mL (≈ 82.8 µM)
CCC[C@@H]1C[C@@H](C(=O)N[C@H]([C@@H]2CCCC2N)[C@H]2OC(SC)[C@H](O)C(O)C2O)N(C)C1 (stereo partly shown) [FSA-217045a]	> 64	64 (≈ 144 µM)	> 64	> 64	> 64	> 64	> 64	> 64	> 64	MIC [11, 19]: > 64 µg/mL
CCC[C@@H]1C[C@@H](C(=O)N[C@H]([C@H](C)NC2CC2)[C@H]2OC(SC)[C@H](O)C(O)C2O)N(C)C1 (stereo partly shown) [FSA-215028c]	8 (≈ 18 µM)	16 (≈ 35.9 µM)	64 (≈ 144 µM)	> 64	> 64	> 64	> 64			MIC [7]: 32 µg/mL (≈ 71.8 µM)
CCC[C@@H]1C[C@@H](C(=O)N[C@H]([C@@H]2CCC(O)C2O)[C@H]2OC(SC)[C@H](O)C(O)C2O)N(C)C1 (single isomer, unassigned) [FSA-217039a]				> 64	> 64	> 64	> 64	> 64	> 64	MIC ([1]; S. pyogenes ATCC 19615): 8 µg/mL (≈ 17.3 µM); MIC ([2]; S. pneumoniae ATCC 49619): 8 µg/mL (≈ 17.3 µM); MIC ([3]; S. aureus ATCC 29213): >64 µg/mL; MIC [11, 20]: >64 µg/mL
